Tested on: L1210
Test: Growth inhibitory activity against L1210 lymphocytic leukemia cells.
Assay type: functional
Conditions: Mus musculus, read-out: ID50 (the source's name)

Work on Cc1c2ccncc2c(C)c2c1[nH]c1ccc(O)cc12 yielded an IC50 of 15 nM.

For Cc1c2ccncc2c(C)c2c1[nH]c1c(O)cccc12, the IC50 was 5440 nM.

Cc1c2c[n+](C)ccc2c(C)c2c1c1cc(O)ccc1n2C gave an IC50 of 41 nM.

For Cc1c2ccncc2c(C)c2c1[nH]c1ccccc12 [ELLIPTECINE], the IC50 was 990 nM.

In the case of Cc1c2cc[n+](C)cc2c(C)c2c1[nH]c1ccc(O)cc12 [ELLIPTINIUM], the IC50 is reported as 50 nM.
